Reference: US9222059B2, “Cleaning formulations with improved surfactant solubility and methods of production and use thereof” (The Sun Products Corporation, priority 2011, dated 2015)
Where two headings read alike, the source gives them in different places.

What was measured:
[1] = Storage stability (Pass/Fail) of base liquid detergent formulation with 9.5% EMES plus candidate hydrotrope; type: physicochemical; design: key: a sample was said to “Pass” if it remained a clear isotropic liquid at the indicated challenge temperature; a sample was said to “Fail” if it showed any of the above-described evidence of instability or insolubility
[2] = Rheology, 40 mm circular plate rheometer (flowability/pumpability); type: physicochemical; conditions: agent at about 5% to about 8%; results not shown
Description: A solution of 35% EMES+7% C8 amine oxide in water was prepared as described in the foregoing examples. […] The rheology of the solution was then tested using a 40 mm circular plate rheometer. A conditioning step was performed which brought the plate to 25° C., and a pre-shear step was carried out at 0.7958 Pa for 30 sec, and then the device was equilibrated until it reached 0 velocity. Then the main continuous ramp step began on the solution, which ran for 1 minute, and the shear stress was increased from 0.1 to 250 Pa. A total of 15 data points were collected, and the device remained at 25° C. the entire time. […] Solutions of about 40% or more EMES, however, required a slightly higher amine oxide content to remain flowable and pumpable, but the shear stress necessary was inordinately high. Therefore, for applications in which it may be desirable to pump the surfactant formulation, it is preferable to use 35% or lower EMES in the formulation.
We also evaluated whether or not inclusion of one or more additional components in the solution would improve the pumpability of high concentration EMES formulations. Specifically, ethanol or glycerine at about 5% to about 8% were included in formulations containing 35% EMES/7% C8 amine oxide.

[3] = Interfacial surface tension / CMC (detergency), pendant drop method, Kruss DSA100; type: physicochemical; conditions: 0 to 250 ppm in water; FIG. 1
Text: First, we addressed the fact that MES has typically been thought of as a component that can show poor detergency. A surfactant's cleaning performance (i.e., detergency) can be measured directly by an examination of its interfacial tension (IFT) as a function of its critical micelle concentration (CMC, the concentration where the surfactant's monomers arrange themselves in a spherical shape so that their hydrophobic tails can trap oil). We therefore wanted to examine the suitability of various surfactants, including various types of MES, for use in reducing surface tension (i.e., detergency) over various surfactant concentrations. Surfactants were titrated in water at concentrations from 0 to 250 ppm (which is typical of “in use” conditions for surfactant formulations in household laundry methods), and the interfacial surface tension of these solutions was measured as a function of concentration using the pendant drop method on a Kruss DSA100 drop shape analyzer. […] As one of ordinary skill will readily understand, other tensiometric methods of determining interfacial surface tension can also be used, for example using a Du Nouy ring, drop volume, or bubble tensiometer; suitable instrumentation and methods for measuring surface tension using such approaches are well-known in the art. […]

[4] = Liquid stability / solubility of high-concentration EMES in water with C8 amine oxide; conditions: 25% EMES, about 2% C8 AO; FIG. 6b
Description: Similar approaches were taken for examining the impact of increasing EMES concentration on liquid stability (i.e., examining the solubility of the surfactant in solution at a given concentration), and the ability of hydrotropes to improve EMES solubility. Specifically, samples of EMES in water were prepared at different concentrations and observed as described above for any evidence of instability or poor solubility.

[5] = material 2.00 % w/v in base detergent with 9.5% EMES, 3 cycles, -20° C.
[6] = material 2.00 % w/v in base detergent with 9.5% EMES, 52 weeks
[7] = material 2.00 % w/v in base detergent with 9.5% EMES, 1 week
[8] = material 2.00 % w/v in base detergent with 9.5% EMES, 12 weeks

Compound | 40° F. storage [1] | 105° F. storage [1] | 125° F. storage [1] | Freeze/Thaw storage [1, 5] | Room Temp. storage [1, 6] | further results
Lauramine oxide [Ammonyx LO] | Fail | Pass | Pass | Pass | Pass | –
Sodium xylene sulfonate [reference compound] | Fail | Pass | Pass | – | – | Freeze/Thaw storage [1]: Pass; Room Temp. storage [1]: Pass
CCCCCCCCCCCC(=O)OCCOCCOCCOCCOCCOCCOCCOCCOCCOCCOCCOCCOCCOCCOCCOCCOCCOCCOCCOCCOCC(OCCOCCOCCOCCOCCOCCOCCOCCOCCOCCOCCOCCOCCOCCOCCOCCOCCOCCOCCOCCO)C1OCC(OCCOCCOCCOCCOCCOCCOCCOCCOCCOCCOCCOCCOCCOCCOCCOCCOCCOCCOCCOCCO)C1OCCOCCOCCOCCOCCOCCOCCOCCOCCOCCOCCOCCOCCOCCOCCOCCOCCOCCOCCOCCO (stereo not shown) [Tween 20, Polysorbate 20] | Fail | Pass | Pass | – | – | Freeze/Thaw storage [1]: Pass; Room Temp. storage [1]: Pass
CCO [Ethanol, Ethyl alcohol, reference compound] | – | – | – | Pass | Pass | 125° F. storage [1, 7]: Pass; 40° F. storage [1, 8]: Fail; 105° F. storage [1, 8]: Pass; flowability of 35% EMES/7% C8 amine oxide with added agent [2]: worse
C[N+](C)(C)CC(=O)O [Tomamine LH, Betaine] | Fail | Pass | Pass | Pass | Pass | –
Akkylglucoside [AG6206] | Fail | Pass | Pass | Pass | Pass | –
Methyl ester sulfonate [MES] | – | – | – | – | – | critical micelle concentration (CMC), compared with LAS, SLES [3]: reaches its CMC the quickest; interfacial tension (IFT), compared with LAS, SLES [3]: lowest IFT at each concentration measured
CCCCCCCCCC[N+](C)(C)[O-] [Genamino x DC40, Decyl dimethyl amine oxide] | Fail | Pass | Pass | Pass | Pass | –
CCCCCCCC[N+](C)(C)[O-] [Synthetic C8 3853-01, Octyl dimethyl amine oxide] | Pass | Pass | Pass | Pass | Pass | –
Glycerine (propane 1,2,3-triol) [reference compound] | Fail | Pass | Pass | – | – | Freeze/Thaw storage [1]: Pass; Room Temp. storage [1]: Pass; flowability of 35% EMES/7% C8 amine oxide with added agent [2]: worse
CCCCCCCC[N+](C)(C)[O-] [C8 AO, octyl dimethyl amine oxide] | – | – | – | – | – | appearance of EMES solution with hydrotrope [4]: nearly clear, isotropic solution
CC(O)CO (stereo not shown) [Propylene glycol, Propylene glycol (1,2-propane diol), reference compound] | – | – | – | Pass | Pass | 125° F. storage [1, 7]: Pass; 40° F. storage [1, 8]: Fail; 105° F. storage [1, 8]: Pass
